Assay results published in US20250250542A1, “CULTURE METHOD” (Quell Therapeutics Limited, priority 2023, published 2025).

Legend:
[1] = test system: Tregs from patient material; experiment: Transduction efficiency of expansion product (% Dextramer+/QBEND+)
Description: A lentiviral vector was used to transduce the cells. The vector encodes an RQR8 safety switch, a FOXP3 polypeptide and an HLA-A2-specific CAR.
The Tregs were rested in Treg culture media (X-VIVO 15 media (Lonza) supplemented with 5% Human AB serum (heat-inactivated; Merck)) containing 100 nM of rapamycin for 1 hour before activation. The Tregs were then activated by adding CD3 and CD28 beads and cultured for 24 or 48 hours (1+24 and 1+48 conditions respectively). At 24 or 48 hours, the cells were washed with fresh Treg culture media and centrifuged. The supernatant was removed and the cell pellet was resuspended in fresh Treg culture media. The expansion was then continued in the fresh Treg culture media (X-VIVO 15 media (Lonza) supplemented with 5% Human AB serum (heat-inactivated; Merck)) further containing IL-2 (Proleukin, Clinigen Healthcare) and lentiviral supernatant but no rapamycin. Cells were re-fed every 2 to 3 days with Treg culture media supplemented with IL-2. Cells were harvested by removing the CD3 and CD28 beads 14 days after activation.

[2] = test system: bulk Tregs from patient donor material; experiment: % of FOXP3+ cells in the expansion product from patient donor material; assay type: cell-based, human; details: 100 nM rapamycin
Description: Leukopaks were supplied by BioIVT.
Leukopaks were used to derive Treg populations. […] Where indicated, CD4+CD25+CD127−/low (Bulk Tregs) were used.

For CO[C@H]1C[C@@H]2CC[C@@H](C)[C@@](O)(O2)C(=O)C(=O)N2CCCC[C@H]2C(=O)O[C@H]([C@H](C)C[C@@H]2CC[C@@H](O)[C@H](OC)C2)CC(=O)[C@H](C)/C=C(\C)[C@@H](O)[C@@H](OC)C(=O)[C@H](C)C[C@H](C)/C=C/C=C/C=C/1C [rapamycin], which “% Dextramer+/QBEND+” value ([1]; donor LTX-008, 1 + 24 (control 36)) is on record?
Its value is 30%.

And the “% Dextramer+/QBEND+” value ([1]; donor LTX-008, 1 + 48 (control 36))?
Its value is 37.8%.

What about the “% Dextramer+/QBEND+” value ([1]; donor LTX-0011, 1 + 48 (control 20.5)) of the same molecule?
Its value is 30.8%.

What about the “% Dextramer+/QBEND+” value ([1]; donor LTX-0012, 1 + 48 (control 10)) of the same molecule?
The value was 11%.

And the “% CD4+CD25+FOXP3+ cells” value ([2]; donor LTX-008, 1 + 24 h, day 14 (control 80.8))?
Its value is 91.2%.

And the “% CD4+CD25+FOXP3+ cells” value ([2]; donor LTX-008, 1 + 48 h, day 14 (control 80.8))?
Its value is 91.4%.

And the “% CD4+CD25+FOXP3+ cells” value ([2]; donor LTX-0011, 1 + 48 h, day 14 (control 57.3))?
The value was 92.6%.

And the “% CD4+CD25+FOXP3+ cells” value ([2]; donor LTX-0012, 1 + 48 h, day 14 (control 92.8))?
The value was 98.2%.

What about the “% CD4+CD25+FOXP3+ cells” value ([2]; donor LTX-0013, 1 + 48 h, day 14 (control 41.0)) of the same molecule?
Its value is 89.9%.
